Compound	melting point
Cc1cc2c(c(Sc3ccc(Cl)cc3)n1)C(=O)N(CC1Cc3c(sc(N)c3C(=O)OC(C)(C)C)CO1)C2=O (stereo not drawn)	118 to 119 °C
CCCCCCC(C(C)O)n1cnc(C#N)c1N (stereo not drawn)	110 to 111 °C
CCc1ccc2c(c1)CC(=O)N2	136 to 137 °C
Cc1oc(-c2ccc(C(F)(F)F)cc2)nc1COc1ccc(CN(O)C(N)=O)cc1	146 to 147 °C
O=C(O)/C=C1\CCc2c(Cl)cc(F)cc21	229 to 230 °C
O=C(c1ccccc1)c1cc(Cl)ccc1-n1c(CN2C(=O)c3ccccc3C2=O)nnc1CN1C(=O)c2ccccc2C1=O	250 to 251 °C
CCOC(=O)c1ccc(N2Cc3ccccc3C2=O)cc1	182 to 184 °C
CC(O)(C#Cc1ccc(S(=O)(=O)N2CCCC2)cc1)C(F)(F)F (stereo not drawn)	140 to 143 °C
O=[N+]([O-])C(=Cc1ccco1)C1=NCCN1Cc1ccc(Cl)nc1	157 to 162 °C
Cc1ccc(S(=O)(=O)c2ccc(N3CCNCC3)cc2N)cc1	102 to 106 °C
CCOc1ncc(N)cc1C(=O)O	260 to 262 °C
O=C(C=C1CCCN1)c1ccc(Cl)c(Cl)c1	208 to 209 °C
CC1CC(C)CN(CCNC(=O)Nc2ccccc2)C1 (stereo not drawn)	189 to 191 °C
COc1ccc(CCCCc2ccc(OC)c(OC)c2OC)cc1OC	165 to 167 °C
Nc1ncccc1CNC1CCN(Cc2ccccc2)CC1	114 °C
CC(C)(C)OC(=O)NC1CC2CCCC(C1)N2Cc1ccccc1 (stereo not drawn)	154 to 155 °C
CC(C)c1nc2cc(COc3ccc(C=C4SC(=O)NC4=O)cc3)ccc2o1	219 to 221 °C
CC[C@@H](c1ccccc1)N(Cc1ccc(C(=O)OC)cc1)S(=O)(=O)c1ccc(C(F)(F)F)cc1	70 to 72 °C
CCC1=CC(Cl)(NC2CCC(C(C(=O)OC)C(=O)OC)CC2)NC=N1 (stereo not drawn)	82 to 83 °C
Cc1nc(-c2cccc(-n3cnc4cc(I)ccc43)c2)cs1	163 to 164 °C
COC(=O)c1ccc(Cc2cn(C/C=C/c3ccc4ccc(Cl)cc4n3)c3ccc([N+](=O)[O-])cc23)c(OC)c1	158 to 160 °C
COC(=O)c1ccc2cc(-c3ccc(OCCCO)c(C45CC6CC(CC(C6)C4)C5)c3)ccc2c1	202 °C

Compound	melting point
CC(C)OC(=O)C=CC(=O)c1ccc(Oc2ccccc2)cc1	71.5 to 72 °C
O=C(O)CCNC(=O)CCNC(=O)N1CCC2(CCNCC2)CC1	105 to 110 °C
CC1COc2c(F)c(Cl)cc3c(=O)c(C(=O)O)cn1c23 (stereo not drawn)	> 300 °C
CNc1c(S(=O)(=O)C(F)(F)F)c(C)nn1-c1c(Cl)cc(C(F)(F)F)cc1Cl	139 to 140 °C
NC(C(=O)O)c1ccsc1 (stereo not drawn)	283 to 285 °C
COc1ccc(NC(C)=O)cc1OC(F)F	129 to 130 °C
COc1ccccc1NCN1C(=O)CSC1=O	88.5 to 91 °C
COC(=O)C(C)(C)Cc1c(C(=O)C2CC2)c2cc(OCc3ccc4ccccc4n3)c(C(=O)C3CC3)cc2n1Cc1ccc(Cl)cc1	166 to 167 °C
CC(C)(C)OC(=O)NC12CC3CC(C1)CC(OS(C)(=O)=O)(C3)C2	100 to 102 °C
C=CCCCCS(=O)(=O)C[C@@H](C)C(=O)O	51 to 54 °C
CC(C)(CO)CNC(=O)c1n[nH]cc1NC(=O)c1ccccn1	217 to 218 °C
CCC1(CC)CC(c2ccc(F)cc2)=C(c2ccc(S(N)(=O)=O)cc2)C1	101 °C
Cc1cc(C(=O)N(C(C)C)C(C)C)ccc1[N+](=O)[O-]	108 to 110 °C
CNS(=O)(=O)c1ccc(Nc2cc(N3CCCCC3)cc(-c3ccc(F)cc3)n2)cc1	191 to 192 °C
O=[N+]([O-])c1ccc(F)cc1CS(=O)(=O)c1cccc2ccccc12	155 to 160 °C
CNC(=S)C1=CC(C)(CF)Oc2ccc([N+](=O)[O-])cc21 (stereo not drawn)	141 to 144 °C
CNC(=O)[C@H](CO[Si](C)(C)C(C)(C)C)NC(=O)Nc1n[nH]c(=S)s1	213 to 214 °C
CCCNC(=O)c1cnc2ccc(C)cn2c1=O	126 to 128 °C
CCc1cc(O)cc(=O)o1	106 to 108 °C
CCOP(=O)(Cc1ccc(NC(=O)c2cc3c(s2)-c2c(SC)sc(C(=O)Nc4ccc(CP(=O)(OCC)OCC)cc4)c2CC3)cc1)OCC	262 to 263 °C
COc1ccc(-c2cc(F)c(F)cc2-c2ccc(S(C)(=O)=O)cc2)cc1F	159 to 160 °C

Other lines, results leading:

melting point	Compound
184 to 186 °C	O=c1ccc2cc(OC3O[C@H](CO)[C@@H](O)[C@H](O)[C@H]3O)c(OCc3ccccc3)cc2o1 (stereo partly drawn)
200 to 202 °C	CN1C2=NCCN2C(=O)c2cc(Cl)ccc21
143 °C	CCCC(CCC)N1CCc2c(C(=O)O)cc(F)cc2C1=O
> 320 °C	CCOc1ccc2nc3[nH]c(=O)[nH]c3cc2c1
164 to 165 °C	COc1cc(F)ccc1Oc1c(Cl)nc(C)nc1NS(=O)(=O)c1ccc(C(C)(C)C)cc1
310 to 321 °C	O=c1[nH]c2cc([N+](=O)[O-])c(S(=O)(=O)N(CCO)CCO)cc2[nH]c1=O
119 to 121 °C	O=C1NC(=O)C(CCCOc2ccc(F)cc2)S1 (stereo not drawn)
187 to 188 °C	CC(=O)NC[C@H]1CN(c2cc(F)c(N3CCSCC3)c(F)c2)C(=O)O1
140 to 141 °C	CCCCCS(=O)(=O)NC(=O)/C=C/c1ccc(OCCOC)cc1NC(=O)c1ccc(F)cc1F
134 to 135 °C	COc1ccc(-c2cc(=O)c3cc(OCCCCCCN4CCC(O)CC4)ccc3o2)cc1
136 to 140 °C	Cn1cc(C(=O)Nc2ccccc2-c2ccc(Cl)cc2Cl)c(C(F)(F)F)n1
222 to 223 °C	Cc1cc(C2=NN(C(=O)OC(C)(C)C)[C@H](C)Cc3cc4c(cc32)OCO4)cc(C)c1[N+](=O)[O-]
175 to 177 °C	NC1=NS(=O)N=C1NCCCCN(Cc1ccc(Cl)cc1)c1ccccn1 (stereo not drawn)
144 to 145 °C	C=CC(c1ccccc1)c1c(C)c(NC=O)c(C)c(C)c1O (stereo not drawn)
65 to 66 °C	O=Cc1cccc(-c2cccc3ccccc23)n1
47 to 48 °C	C[C@@H](O)COc1c(N)ccc(F)c1F
234 to 235 °C	O=C1NCCc2c(-c3ccc(F)c(Cl)c3)[nH]c3cccc1c23
138 to 140 °C	Cc1nc(C(N)=O)cn1-c1ccc(Cl)cc1
172 to 176 °C	O=c1ccc2ccc(CBr)cc2o1
152 to 153 °C	O=C(C=Cc1ccc(OCc2ccccc2)c([N+](=O)[O-])c1)Nc1ccc(Cl)cc1Cl
133 to 135 °C	COc1cc(-n2cccn2)ccc1-n1cc(OC)c(=O)c(-c2ccnn2-c2ccccc2)n1
181 to 183 °C	COC(=O)c1nc(Br)cc(Br)c1O
48 to 50 °C	CNc1nc2ccccc2n1CCOS(C)(=O)=O
69 to 70 °C	CCOC(=O)C1CCCn2c(cc3ccccc32)C1 (stereo not drawn)
149 to 150 °C	O=c1[nH]c2ccccc2n1C1CCN(CCCOc2ccc(F)cc2Cl)CC1
186 to 189 °C	O=C(O)CCCc1cc2nc(Cl)ccc2n1S(=O)(=O)c1cccc2cccnc12
118 to 119 °C	Cc1nc(N)c2nc(C)n(CCOCCCc3ccccc3)c2c1C
201 to 203 °C	CSc1cc2nnc(C)n2c(C)n1
169 to 170 °C	CCCCCCN(Cc1ccccn1)C(Nc1cc(C(C)(C)C)c(O)c(C(C)(C)C)c1)=C1C(=O)OC(C)(C)OC1=O
212 to 214 °C	Cc1cc(=O)[nH]c2cc(OCCCN3CCN(c4cccc(Cl)c4)CC3)ccc12

— a melting point compilation (Tetko et al.; mined from patent text by program, amines drawn as free bases though some values may be those of a salt)
